# Reference: patent US20260184710A1, “CASITAS B-LINEAGE LYMPHOMA PROTOONCOGENE B (CBL-B) DEGRADING COMPOUNDS AND ASSOCIATED METHODS OF USE” (Arvinas Operations, Inc., priority 2022, published 2026)
# Molecular target: T1, Cbl-b (Homo sapiens, UniProt Q13191)
# T1 construct: Cbl-b-HiBit KI Jurkat Cells were purchased from Promega; host or cells: Cbl-b-HiBiT knock-in Jurkat cells
# Experiment: Cbl-b Degradation Method B (Nano-Glo HiBiT lytic detection)
# Format: cell-based
# Details: Cbl-b-HiBit KI Jurkat Cells, incubated at least 6-24 hours; for DC50: half maximal degradation, read-out: Cbl-b Degredation Method B IC50
# Description: Cbl-b Degradation Method B [table] Cbl-b-HiBit KI Jurkat Cells were purchased from Promega, and cell media consisted of RPMI 1640 with 10% […] and 1% pen/strep. The cells were counted, measured for viability, and 35 μL of the cell solution was seeded into 384 well flat bottom plates at a ratio of 20,000 cells per 35 μL. After which, the plates were incubated for ˜24 hours at 37° C. and 5% CO2. Compounds were ordered from Evotec in a 384 well plate at a 1 mM top concentration in DMSO and serially diluted 1:3 in DMSO for an 11-point dose response. Using the Bravo instrument, 1 uL of compound solution or DMSO was transferred to 125 uL of media. Each well was treated with 5 μL of compound plus media mixture or DMO and subsequently incubated for at least 6-24 hours at 37° C. and 5% CO2. After incubation, 30 μL of either NanoGlo media was added to each cell, and the plates read on the Synergy Neo2 machine. The concentration of an exemplary compound that leads to half maximal degradation (DC50) as well as the maximum degradation observed (Dmax, conventionally expressed as a percentage of control) is shown below in Table 2.
# T1 sequence (Q13191 whole entry): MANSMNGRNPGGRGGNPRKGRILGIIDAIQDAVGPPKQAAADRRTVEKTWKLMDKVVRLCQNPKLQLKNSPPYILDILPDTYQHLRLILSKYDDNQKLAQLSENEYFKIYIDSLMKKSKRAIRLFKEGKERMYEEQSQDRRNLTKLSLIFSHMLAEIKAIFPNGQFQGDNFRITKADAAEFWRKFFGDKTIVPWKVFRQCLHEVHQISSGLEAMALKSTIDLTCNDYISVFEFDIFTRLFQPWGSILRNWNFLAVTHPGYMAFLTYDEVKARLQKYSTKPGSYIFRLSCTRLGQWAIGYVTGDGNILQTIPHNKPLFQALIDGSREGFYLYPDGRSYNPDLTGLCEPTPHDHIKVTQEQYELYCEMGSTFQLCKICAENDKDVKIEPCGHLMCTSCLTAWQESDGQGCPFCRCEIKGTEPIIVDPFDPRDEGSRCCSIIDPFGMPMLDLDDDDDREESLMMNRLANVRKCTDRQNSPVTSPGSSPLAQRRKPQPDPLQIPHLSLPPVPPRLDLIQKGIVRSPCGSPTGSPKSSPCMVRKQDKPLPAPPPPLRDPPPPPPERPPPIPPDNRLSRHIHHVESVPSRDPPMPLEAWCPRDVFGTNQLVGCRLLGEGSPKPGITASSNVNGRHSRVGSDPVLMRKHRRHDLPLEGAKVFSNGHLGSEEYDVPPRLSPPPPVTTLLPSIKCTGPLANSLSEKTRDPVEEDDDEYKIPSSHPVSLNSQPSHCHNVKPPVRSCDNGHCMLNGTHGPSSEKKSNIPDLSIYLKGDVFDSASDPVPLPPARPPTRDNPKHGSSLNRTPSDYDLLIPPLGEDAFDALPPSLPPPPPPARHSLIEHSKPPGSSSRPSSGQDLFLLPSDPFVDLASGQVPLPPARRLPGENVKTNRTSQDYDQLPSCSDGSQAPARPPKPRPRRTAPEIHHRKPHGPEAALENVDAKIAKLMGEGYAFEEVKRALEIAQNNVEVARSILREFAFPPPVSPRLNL
Compound,DC50 [µM],"Dmax (maximum degradation observed, read-out: Cbl-b Degredation Method B Dmax (%)) [%]"
"Cn1cnnc1CC1(c2cccc(N3Cc4c(cc(CN5CCC(C6CCN(c7ccc8c(c7)C(=O)N(C7CCC(=O)NC7=O)C8=O)CC6)CC5)cc4C(F)(F)F)C3=O)c2)COC1 (centres unmarked) [Example 26, 2-(2,6-dioxopiperidin-3-yl)-5-(1′-{[2-(3-{3-[(4-methyl-4H-1,2,4-triazol-3-yl)methyl]oxetan-3-yl}phenyl)-3-oxo-7-(trifluoromethyl)-2,3-dihydro-1H-isoindol-5-yl]methyl}-[4,4′-bipiperidin]-1-yl)-2,3-dihydro-1H-isoindole-1,3-dione]",> 0.5,–
"Cn1cnnc1CC1(c2cccc(N3Cc4c(cc(CN5CCC6(CC5)CCN(c5ccc7c(c5)C(=O)N(C5CCC(=O)NC5=O)C7=O)CC6)cc4C(F)(F)F)C3=O)c2)COC1 (centres unmarked) [Example 27, 2-(2,6-dioxopiperidin-3-yl)-5-(9-{[2-(3-{3-[(4-methyl-4H-1,2,4-triazol-3-yl)methyl]oxetan-3-yl}phenyl)-3-oxo-7-(trifluoromethyl)-2,3-dihydro-1H-isoindol-5-yl]methyl}-3,9-diazaspiro[5.5]undecan-3-yl)-2,3-dihydro-1H-isoindole-1,3-dione]",> 0.5,–
"Cn1cnnc1CC1(c2cccc(N3Cc4c(cc(CN5CCN(c6ccc7c(c6)C(=O)N(C6CCC(=O)NC6=O)C7=O)CC5)cc4C(F)(F)F)C3=O)c2)COC1 (centres unmarked) [Example 32, 2-(2,6-dioxopiperidin-3-yl)-5-(4-{[2-(3-{3-[(4-methyl-4H-1,2,4-triazol-3-yl)methyl]oxetan-3-yl}phenyl)-3-oxo-7-(trifluoromethyl)-2,3-dihydro-1H-isoindol-5-yl]methyl}piperazin-1-yl)-2,3-dihydro-1H-isoindole-1,3-dione]",0.05 to 0.5,> 70
"Cn1cnnc1CC1(c2cccc(N3Cc4c(cc(CN5CCC(c6ccc7c(c6)C(=O)N(C6CCC(=O)NC6=O)C7=O)CC5)cc4C(F)(F)F)C3=O)c2)COC1 (centres unmarked) [Example 33, 2-(2,6-dioxopiperidin-3-yl)-5-(1-{[2-(3-{3-[(4-methyl-4H-1,2,4-triazol-3-yl)methyl]oxetan-3-yl}phenyl)-3-oxo-7-(trifluoromethyl)-2,3-dihydro-1H-isoindol-5-yl]methyl}piperidin-4-yl)-2,3-dihydro-1H-isoindole-1,3-dione]",> 0.5,–
"Cn1cnnc1CC1(c2cccc(N3Cc4c(cc(CN5CCC(c6ccc7c(c6)CN(C6CCC(=O)NC6=O)C7=O)CC5)cc4C(F)(F)F)C3=O)c2)COC1 (centres unmarked) [Example 34, 3-[5-(1-{[2-(3-{3-[(4-methyl-4H-1,2,4-triazol-3-yl)methyl]oxetan-3-yl}phenyl)-3-oxo-7-(trifluoromethyl)-2,3-dihydro-1H-isoindol-5-yl]methyl}piperidin-4-yl)-1-oxo-2,3-dihydro-1H-isoindol-2-yl]piperidine-2,6-dione]",> 0.5,–
"Cn1cnnc1CC1(c2cccc(N3Cc4c(cc(CN5CCN(c6ccc(C(=O)NC7CCC(=O)NC7=O)c(F)c6)CC5)cc4C(F)(F)F)C3=O)c2)COC1 (centres unmarked) [Example 35, N-(2,6-dioxopiperidin-3-yl)-2-fluoro-4-(4-{[2-(3-{3-[(4-methyl-4H-1,2,4-triazol-3-yl)methyl]oxetan-3-yl}phenyl)-3-oxo-7-(trifluoromethyl)-2,3-dihydro-1H-isoindol-5-yl]methyl}piperazin-1-yl)benzamide]",> 0.5,–
"Cn1cnnc1CC1(c2cccc(N3Cc4c(cc(CN5CCC(c6ccc7c(c6)C(=O)N(C6CCC(=O)NC6=O)C7)CC5)cc4C(F)(F)F)C3=O)c2)COC1 (centres unmarked) [Example 36, 3-[6-(1-{[2-(3-{3-[(4-methyl-4H-1,2,4-triazol-3-yl)methyl]oxetan-3-yl}phenyl)-3-oxo-7-(trifluoromethyl)-2,3-dihydro-1H-isoindol-5-yl]methyl}piperidin-4-yl)-1-oxo-2,3-dihydro-1H-isoindol-2-yl]piperidine-2,6-dione]",> 0.5,–
